These results are taken from patent US20050107606A1 (published 2005).

In general, melting point refers to the temperature, or range, at which the solid turns liquid. In turn, `CCCn1cncc1CSc1ccc(NC(=O)C(F)(F)F)cc1` displayed a melting point of 82 to 84 °C.
